Legend:
Plasma Half-life = settings: BALB/c, mouse, pH 7.4
Intrinsic Clearance = settings: mouse liver microsomes
BRD2 BD1 WT [1] = target: T1, BRD2 BD1 WT (Homo sapiens, UniProt P25440); experiment: competitive AlphaLISA; type: binding
[2] = system: L/V BET bromodomains (BD1 and BD2 of BRD2, BRD3 and BRD4); experiment: competitive AlphaLISA (Bio-JQ1 displacement); type: binding, human; settings: for AlphaLISA pIC50 ± SD Δ: L/V minus WT; for AlphaLISA pIC50 ± SD L/V: mean and SD of all somatic bromodomains, active enantiomer concentration
BRDT BD1 WT = BRDT BD1 WT (Homo sapiens, UniProt Q58F21); experiment: competitive AlphaLISA; type: binding
BRDT BD2 L/V = BRDT BD2 L/V (Homo sapiens, UniProt Q58F21, L306V); experiment: competitive AlphaLISA; type: binding
[3] = target: WT BET bromodomains (BD1 and BD2 of BRD2, BRD3 and BRD4); experiment: competitive AlphaLISA (Bio-JQ1 displacement); type: binding, human; settings: mean and SD of all somatic bromodomains; active enantiomer concentration
BRD3 BD1 L/V [4] = target: T2, BRD3 BD1 L/V (Homo sapiens, UniProt Q15059, L70V); experiment: competitive AlphaLISA; type: binding
BRDT BD2 WT = BRDT BD2 WT (Homo sapiens, UniProt Q58F21); experiment: competitive AlphaLISA; type: binding
BRD3 BD1 WT [5] = target: T3, BRD3 BD1 WT (Homo sapiens, UniProt Q15059); experiment: competitive AlphaLISA; type: binding
BRD2 BD1 L/V [6] = target: T4, BRD2 BD1 L/V (Homo sapiens, UniProt P25440, L110V); experiment: competitive AlphaLISA; type: binding
BRD3 BD2 L/V [7] = target: T5, BRD3 BD2 L/V (Homo sapiens, UniProt Q15059, L345V); experiment: competitive AlphaLISA; type: binding
BRD2 BD2 WT [8] = target: T6, BRD2 BD2 WT (Homo sapiens, UniProt P25440); experiment: competitive AlphaLISA; type: binding
in vitro = settings: PAMPA, pH 7.4
BRD4 BD2 WT [9] = target: T7, BRD4 BD2 WT (Homo sapiens, UniProt O60885); experiment: competitive AlphaLISA; type: binding
BRDT BD1 L/V = BRDT BD1 L/V (Homo sapiens, UniProt Q58F21, L63V); experiment: competitive AlphaLISA; type: binding
BRD3 BD2 WT = BRD3 BD2 WT (Homo sapiens, UniProt Q15059); experiment: competitive AlphaLISA; type: binding
BRD4 BD1 L/V [10] = target: T8, BRD4 BD1 L/V (Homo sapiens, UniProt O60885, L94V); experiment: competitive AlphaLISA; type: binding
BRD4 BD1 WT [11] = target: T9, BRD4 BD1 WT (Homo sapiens, UniProt O60885); experiment: competitive AlphaLISA; type: binding
BRD2 BD2 L/V [12] = target: T10, BRD2 BD2 L/V (Homo sapiens, UniProt P25440, L383V); experiment: competitive AlphaLISA; type: binding
BRD3 BD2 L/V [13] = target: T5, BRD3 BD2 L/V; experiment: ITC; type: binding
[14] = system: L/V somatic BET bromodomains; experiment: ITC; settings: L/V minus WT
BRD2 BD1 WT [15] = target: T1, BRD2 BD1 WT; experiment: ITC; type: binding
BRD4 BD1 L/V [16] = target: T8, BRD4 BD1 L/V; experiment: ITC; type: binding; settings: for Kd: Kd BRD4 BD1 L/V
BRD3 BD1 L/V [17] = target: T2, BRD3 BD1 L/V; experiment: ITC; type: binding
BRD2 BD1 L/V [18] = target: T4, BRD2 BD1 L/V; experiment: ITC; type: binding
BRD2 BD2 WT [19] = target: T6, BRD2 BD2 WT; experiment: ITC; type: binding
BRD3 BD1 WT [20] = target: T3, BRD3 BD1 WT; experiment: ITC; type: binding
BRD4 BD1 WT [21] = target: T9, BRD4 BD1 WT; experiment: ITC; type: binding
BRD4 BD2 L/V [22] = target: T11, BRD4 BD2 L/V (Homo sapiens, UniProt O60885, L387V); experiment: competitive AlphaLISA; type: binding
BRD4 BD2 WT [23] = target: T7, BRD4 BD2 WT; experiment: ITC; type: binding
BRD4 BD2 L/V [24] = target: T11, BRD4 BD2 L/V; experiment: ITC; type: binding
BRD2 BD2 L/V [25] = target: T10, BRD2 BD2 L/V; experiment: ITC; type: binding
[26] = AlphaLISA pIC50 Value BRD4 BD1 L/V
[27] = AlphaLISA pIC50 Value BRD4 BD1 WT

T2 sequence (Q15059 24-144 L70V limits assumed): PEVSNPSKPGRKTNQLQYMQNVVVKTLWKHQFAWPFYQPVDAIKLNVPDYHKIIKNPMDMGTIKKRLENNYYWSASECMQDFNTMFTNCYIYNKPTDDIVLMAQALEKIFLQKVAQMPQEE
T3 sequence (Q15059 24-144): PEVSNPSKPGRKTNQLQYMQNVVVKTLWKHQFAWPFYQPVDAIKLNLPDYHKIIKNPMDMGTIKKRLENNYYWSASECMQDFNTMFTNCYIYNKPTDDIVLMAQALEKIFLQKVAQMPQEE
T1 sequence (P25440 71-176): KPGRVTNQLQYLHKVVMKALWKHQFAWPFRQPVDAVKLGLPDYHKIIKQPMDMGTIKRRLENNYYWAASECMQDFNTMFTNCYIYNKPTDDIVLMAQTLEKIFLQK
Sequence of BRD3 BD2 WT (Q15059 306-416): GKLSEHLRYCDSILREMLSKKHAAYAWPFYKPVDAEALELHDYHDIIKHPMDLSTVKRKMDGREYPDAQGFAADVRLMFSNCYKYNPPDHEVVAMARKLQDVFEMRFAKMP
T10 sequence (P25440 344-455 L383V): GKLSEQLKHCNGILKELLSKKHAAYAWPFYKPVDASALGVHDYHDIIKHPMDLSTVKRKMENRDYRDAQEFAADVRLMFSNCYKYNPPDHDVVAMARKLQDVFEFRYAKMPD
T6 sequence (P25440 344-455): as the sequence (P25440 344-455 L383V) above, with V40L counted along it
T5 sequence (Q15059 306-416 L345V limits assumed): as the sequence (Q15059 306-416) above, with L40V counted along it
T4 sequence (P25440 71-176 L110V limits assumed): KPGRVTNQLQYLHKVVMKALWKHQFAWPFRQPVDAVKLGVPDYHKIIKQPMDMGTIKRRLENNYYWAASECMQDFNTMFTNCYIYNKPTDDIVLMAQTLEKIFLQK

Row | SMILES | half-life at 50 µM (Plasma Half-life) [h] | CL int (Intrinsic Clearance) [ml min^–1 g^–1] | IC50 (BRD2 BD1 WT [1]) [µM] | AlphaLISA pIC50 ± SD Δ [2] | IC50 (BRDT BD1 WT) [µM] | IC50 (BRDT BD2 L/V) [µM] | AlphaLISA pIC50 ± SD WT [3] | IC50 (BRD3 BD1 L/V [4]) [µM] | IC50 (BRDT BD2 WT) [µM] | IC50 (BRD3 BD1 WT [5]) [µM] | IC50 (BRD2 BD1 L/V [6]) [µM] | IC50 (BRD3 BD2 L/V [7]) [µM] | IC50 (BRD2 BD2 WT [8]) [µM] | Papp (in vitro) [×10⁻⁶ cm/s] | IC50 (BRD4 BD2 WT [9]) [µM] | IC50 (BRDT BD1 L/V) [µM] | IC50 (BRD3 BD2 WT) [µM] | IC50 (BRD4 BD1 L/V [10]; [26]) [µM] | IC50 (BRD4 BD1 WT [11]; [27]) [µM] | IC50 (BRD2 BD2 L/V [12]) [µM] | also measured
1 | COC(=O)[C@H](C)[C@@H]1N=C(c2ccc(Cl)cc2)c2cc(OC)ccc2-n2c(C)nnc21 (relative stereo) [Compound 3] | > 3 | 0.7 | 2 | 1.2 ± 0.2 | 2 | 0.0794 | 6.2 ± 0.3 | 0.0316 | 1.26 | 0.251 | 0.0631 | 0.0316 | 1 | 18.5 | – | – | – | – | – | – | –
2 | CCNC(=O)[C@H](CC)[C@@H]1N=C(c2ccc(Cl)cc2)c2ccc(OC)cc2-n2c(C)nnc21 (relative stereo) [Compound 22] | > 3 | 2.1 | > 100 | >1.2 | > 100 | 20 | <4.0 | 3.16 | > 100 | 63.1 | 6.31 | 3.98 | > 100 | 5.9 | > 100 | 20 | > 100 | 7.94 | 63.1 | 7.94 | AlphaLISA pIC50 ± SD L/V [2]: 5.2 ± 0.2
3 | COC(=O)[C@H](C)[C@@H]1N=C(c2ccc(Cl)cc2)c2ccc(OC)cc2-n2c(C)nnc21 (racemic) [Compound 7] | > 3 | <0.5 | 3.16 | 1.4 ± 0.2 | 5.01 | – | 5.4 ± 0.2 | 0.1 | 7.94 | 1.58 | 0.2 | 0.1 | 7.94 | 15.8 | 6.31 | 0.251 | 5.01 | 0.2 | 3.16 | 0.316 | Kd (BRD3 BD2 L/V [13]): 0.23 µM; ITC pKd ± SD Δ [14]: 2.0 ± 0.4; Kd (BRD2 BD1 WT [15]): 32 µM; ΔH BRD4 BD1 L/V (BRD4 BD1 L/V [16]; ITC, total compound concentration): -4.2 ± 0.0 kcal/mol; Kd (BRD4 BD1 L/V [16]; ITC of separated enantiomers and racemates, total compound concentration): 0.5 ± 0.05 µM; Kd (BRD4 BD1 L/V [16]; ITC, 30°C): 0.14 µM; Kd (BRD3 BD1 L/V [17]): 0.14 µM; Kd (BRD2 BD1 L/V [18]): 0.31 µM; Kd (BRD2 BD2 WT [19]): > 60 µM; Kd (BRD3 BD1 WT [20]): 12 µM; Kd (BRD4 BD1 WT [21]): 28 µM; ΔpIC50 BRD4 BD1 (BRD4 BD1 L/V [10]; L/V minus WT, total compound concentration): 1.4; IC50 (BRD4 BD1 L/V [10]; pIC50 BRD4 BD1 L/V, separated enantiomers test, total compound concentration): 0.631 µM; IC50 (BRD4 BD2 L/V [22]): 0.2 µM; Kd (BRD4 BD2 WT [23]): 33 µM; Kd (BRD4 BD2 L/V [24]): 0.98 µM; IC50 (BRD4 BD1 WT [11]; pIC50 BRD4 BD1 WT, separated enantiomers test, total compound concentration): 12.6 µM; Kd (BRD2 BD2 L/V [25]): 0.33 µM
4 | COC(=O)CC1N=C(c2ccc(Cl)cc2)c2cc(OC)ccc2-n2c(C)nnc21 (stereo not shown) [Compound 1] | 0.9 | <0.5 | 0.316 | – | 0.501 | 1 | – | 0.0631 | – | 0.126 | – | 0.501 | 0.316 | 14.9 | – | – | – | – | – | 0.316 | –
5 | C=CC[C@@H](C(=O)OC)[C@@H]1N=C(c2ccc(Cl)cc2)c2ccc(OC)cc2-n2c(C)nnc21 (relative stereo) [Compound 9] | > 3 | 9.4 | 50.1 | 1.3 ± 0.2 | 63.1 | 5.01 | 4.4 ± 0.1 | 1.58 | 50.1 | 31.6 | 3.98 | 1 | 39.8 | 13.6 | 63.1 | 6.31 | 50.1 | 3.16 | 39.8 | 1.26 | AlphaLISA pIC50 ± SD L/V [2]: 5.7 ± 0.2; IC50 (BRD4 BD2 L/V [22]): 3.16 µM
6 | C=CC[C@@H](C(=O)NCC)[C@@H]1N=C(c2ccc(Cl)cc2)c2cc(OC)ccc2-n2c(C)nnc21 (relative stereo) [Compound 18] | > 3 | 2.6 | 50.1 | 1.5 ± 0.1 | 79.4 | 5.01 | 4.3 ± 0.1 | 0.794 | 79.4 | 31.6 | 2.51 | 1.26 | 50.1 | 5.2 | 63.1 | 5.01 | 50.1 | 1.26 | 39.8 | 1 | AlphaLISA pIC50 ± SD L/V [2]: 5.9 ± 0.2; IC50 (BRD4 BD2 L/V [22]): 2 µM
